The subject of data set [1] is Rats. In words: Experiment I: rats fed chow supplemented with compound for 6 days; plasma lipids, glucose, food intake. It counts as in vivo. Particulars: 0.1% (w/w) in diet. On the procedure:
Rats (n=5 for each treatment group) were fed ad libitum on Purina chow for 6 days, the diet being supplemented with 0.1% (w/w) γ,γ′-methyl substituted α,ω-dioic acids of formula (II) (Ex. 1, Ex. 3, Ex. 4) in the diet. The biological effect in vivo was evaluated by following food intake, plasma triglycerides, plasma cholesterol and plasma glucose.

The test system of data set [2] is Rats. In words: Experiment III: conditions as in Experiment II; plasma lipids, apo C-III, glucose, insulin. It counts as in vivo. On the procedure:
(§1) Rats (n=5 for each treatment group) were fed ad libitum on purina chow for 5 days, the diet being supplemented with either γ,γ′-methyl substituted α,ω hexadecanedioic acid (formula (II). Ex. 3) or β,β′-methyl substituted α,ω-hexadecanedioic acid (U.S. Pat. No. 4,634,795) at a dosage of 0.09% (w/w) in the diet. The biological effect in vivo was evaluated by following plasma triglycerides, plasma apolipoprotein(apo)C-III, plasma insulin and the steady state concentrations (Css) of the respective drugs in plasma. Fold efficacy of the γ,γ′-substituted compound (Ex. 3) relative to the β,β′-substituted compound was calculated by normalizing the observed effect by the respective Css attained.
Conditions as in Experiment II using α,α′-methyl-substituted α,ω-tetradecanedioic acid.
Fold efficacy represents the respective effect induced by the α,α′-substituted compound (Ex. 5) relative to that of the β,β′-substituted compound.

The test system of data set [3] is Rats. The data set can be described thus: Experiment II: rats fed chow supplemented with compound for 5 days; plasma triglycerides, apo C-III, insulin. It counts as in vivo. On the procedure:
as §1

Setting [4] is: effect of α,α′-substituted compound relative to β,β′-substituted compound.
Where [5] appears, read: rats, conditions as in Experiment II.
The mark [6] stands for this setting: observed effect normalized by respective Css, relative to β,β′-substituted compound.
Where [7] appears, read: rats, 0.09% (w/w) in diet, 5 days.

The structures appear in SMILES notation.

Consider `CC(C)(CCCCCCCCCCC(C)(C)CCC(=O)O)CCC(=O)O` [Ex. 4, 4,4,15,15-Tetramethyloctadecanedioic acid], for which the melting point (usually the temperature of the solid-liquid transition) is 71 to 72 °C. Besides, in the data set on Rats [1], the Food intake was 19.1 ± 1.2 g/day, the Plasma cholesterol is listed as 56.8 ± 10.8 mg %, the Plasma glucose came to 139.0 ± 9.0 mg % and the Plasma triglycerides is given as 29.3 ± 10.4 mg %.

Consider `CC(C)(CCCCCCCCCCCCC(C)(C)C(=O)O)C(=O)O` [Ex. 6, 2,2,15,15-Tetramethylhexadecanedioic Acid], for which, in the data set with Rats [2] (setting [4]), the “Fold efficacy (α,α/β,β), plasma apo C-III” value came to 3.7; the “Fold efficacy (α,α/β,β), plasma cholesterol” value is listed as 1.2; the “Fold efficacy (α,α/β,β), plasma glucose” value worked out at 1.1; the “Fold efficacy (α,α/β,β), plasma insulin” value is given as 1.0. Also, the “Fold efficacy (α,α/β,β), plasma triglycerides” value in the data set on Rats [2] (setting [4]) came out at 1.78. In the data set on Rats [2] (setting [5]), the “Plasma apo C-III” value is on record as 17 ± 14 mg %, the Plasma cholesterol is listed as 69.5 ± 9.7 mg %, the Plasma glucose is reported as 104 ± 4 mg % and the Plasma insulin came to 24.2 ± 7.3 µU/mL. In addition, the Plasma triglycerides with Rats [2] (rats, conditions as in Experiment II (0.09% w/w in diet, 5 days)) is reported as 44.5 ± 14.0 mg %.

Regarding `CC(C)(CCCCCCC(C)(C)CCC(=O)O)CCC(=O)O` [Ex. 1, 4,4,11,11-Tetramethyltetradecanedioic Acid], the melting point fell in the range of 88 to 89 °C. In the data set with Rats [1], the Food intake was 18.6 ± 2.1 g/day, the Plasma cholesterol was 64.1 ± 12.0 mg %, the Plasma glucose was determined as 127.8 ± 6.6 mg % and the Plasma triglycerides worked out at 24.8 ± 3.9 mg %.

As to `CC(C)(CCCCCCCCC(C)(C)CCC(=O)O)CCC(=O)O` [Ex. 3, 4,4,13,13-Tetramethylhexadecanedioic Acid], in the data set on Rats [1], the Food intake worked out at 19.3 ± 1.1 g/day, the Plasma cholesterol is recorded as 62.4 ± 13.3 mg %, the Plasma glucose stood at 138.8 ± 2.7 mg % and the Plasma triglycerides is reported as 28.8 ± 7.4 mg %. In the data set with Rats [3] (setting [6]), the “Fold efficacy (γ,γ/β,β), plasma apo C-III” value worked out at 7.7; the “Fold efficacy (γ,γ/β,β), plasma insulin” value was determined as 15.2; the “Fold efficacy (γ,γ/β,β), plasma triglycerides” value is recorded as 8.2. In the data set on Rats [3] (setting [7]), the “Plasma apo C-III” value came to 12.0 ± 4.6 mg %, the Plasma insulin was found to be 16 ± 6.1 µU/mL and the Plasma triglycerides is given as 19.9 ± 7.4 mg %.
